One assay addresses T1, RORγt-LBD (Homo sapiens, UniProt P51449).
T1 sequence (P51449 269-508 limits assumed): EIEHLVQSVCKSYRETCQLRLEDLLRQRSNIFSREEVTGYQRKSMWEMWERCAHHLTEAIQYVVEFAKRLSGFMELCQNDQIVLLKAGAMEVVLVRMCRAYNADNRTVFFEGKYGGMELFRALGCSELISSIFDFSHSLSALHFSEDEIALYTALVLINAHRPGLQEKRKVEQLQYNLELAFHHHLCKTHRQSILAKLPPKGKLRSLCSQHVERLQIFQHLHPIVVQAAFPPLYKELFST
The experiment in a line: Time-resolved fluorescence resonance energy-transfer assay (TR-FRET), co-activator peptide recruitment. Format: biochemical. The arrangement: TR-FRET Biochemical Amax: unit not given here. The following applies: for EC50: His-RORγt-LBD 30 nM, SRC peptide 500 nM, agonistic activity, averages of one or more measurements, read-out: TR-FRET Biochemical EC50/; for TR-FRET Biochemical Amax: upper activation limit, His-RORγt-LBD, SRC peptide. Summed up:
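Eu-anti-His-labelled His-RORγt-LBD (30 nM final) recruits biotin-SRC co-activator peptide (500 nM final), detected via APC-streptavidin (5 nM) and Eu-anti-His (0.25 nM). Buffer was Tris/KCl/EDTA at pH 7.0 with 0.01% Triton X-100 and 1 mM DTT. Compounds were tested at 7 points in 5-fold dilutions. Plates were incubated overnight at 4 °C then 1 h at RT, and agonism was read as the 665/615 nm ratio.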
A general note: Time-resolved FRET reads energy transfer from a long-lived donor to a nearby acceptor.

Another assay concerns the target T2, RORγt (Homo sapiens, UniProt P51449).
T2 construct: The plasmid of pFN26A-RORγt-LBD and pG14.35 (Promega, Cat. No. E1370) were co-transfected into HEK 293 cells; expressed in transfected cells; host or cells: HEK 293 cells (Cat. No. GNHu18)
T2 sequence (P51449 269-508 limits assumed): T1 sequence (P51449 269-508 limits assumed)
Briefly: RORγt cellular reporter gene detection assay.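 As to Cellular Reporter Assay Amax: Ursolic Acid added as 5 µL of 20 µM medium per well.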 The class given is cell-based. Particulars: 24 hrs; for EC50: HEK 293 cells co-transfected with pFN26A-RORγt-LBD and pG14.35, in presence of antagonist Ursolic acid, top concentration 50 μM; for Cellular Reporter Assay Amax: upper activation limit, HEK 293 cells, in presence of antagonist Ursolic acid. Summed up: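 HEK293 cells co-transfected with RORγt-LBD and luciferase reporter plasmids, treated with Ursolic acid antagonist plus compound in 4-fold dilutions from 50 μM for 24 h at 37° C. Firefly and Renilla luminescence read; EC50 and Amax from four-parameter fit.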
Background: In a reporter assay the amount or activity of a reporter protein is the signal.

Molecules are shown by their SMILES.

Consider `N#Cc1cc(F)cc(-c2ccc3c(c2)N(S(=O)(=O)c2cccc(C(F)(F)F)c2)C[C@@H]2CN(CC(=O)O)CCN32)c1` [Example 95, (S)-2-(8-(3-cyano-5-fluorophe-nyl)-6-((3-(trifluoromethyl)phe-nyl)sulfonyl)-1,2,4,4a,5,6-hexa-hydro-3H-pyrazino[1,2-a]quin-oxalin-3-yl)acetic acid], for which, at RORγt-LBD, the EC50 was 41.9 nM and the “TR-FRET Biochemical Amax” value is 0.40. In addition, on RORγt, the EC50 turned out to be 649 nM and the “Cellular Reporter Assay Amax” value amounted to 1.4.

Turning to `C/C(=C\c1ccc2c(c1)N(S(=O)(=O)c1cccc(C(F)(F)F)c1)C[C@@H]1CN(C(C#N)(CO)CO)CCN21)c1c(F)cccc1Cl` [Example 73, (S,E)-2-(8-(2-(2-chloro-6-fluorophenyl)prop-1-en-1-yl)-6-((3-(trifluoromethyl)phenyl)sulfonyl)-1,2,4,4a,5,6-hexahydro-3H-pyrazino[1,2-a]quinoxalin-3-yl)-3-hydroxy-2-(hydroxynethyl)propanenitrile], at RORγt-LBD, the EC50 was determined as 40 nM and the “TR-FRET Biochemical Amax” value came out at 0.96. Moreover, on RORγt, the EC50 worked out at 725 nM and the “Cellular Reporter Assay Amax” value amounted to 4.6.

As for `CC(=O)N1CCN2c3ccc(/C=C/c4c(Cl)cccc4C(F)(F)F)cc3N(S(=O)(=O)c3cccc(C(F)(F)F)c3)C[C@@H]2C1` [Example 14, (S,E)-1-(8-(2-chloro-6-(tri-fluoromethyl)styryl)-6-((3-(trifluoromethyl)phenyl)sul-fonyl)-1,2,4,4a,5,6-hexa-hydro-3H-pyrazino[1,2-a]quinoxalin-3-yl)ethan-1-one], at RORγt-LBD, the EC50 is 30.5 nM and the “TR-FRET Biochemical Amax” value came out at 0.89. Moreover, on RORγt, the EC50 was 69.7 nM and the “Cellular Reporter Assay Amax” value is given as 3.1.

For `C[C@@]1(O)CCN2c3ccc(-c4cc(F)cc(OC(F)F)c4)cc3N(S(=O)(=O)c3cccc(C(F)(F)F)c3)C[C@@H]2C1` [Example 107, (6aS,8R)-3-(3-(difluoromethoxy)-5-fluorophenyl)-8-methyl-5-((3-(trifluoromethyl)phenyl)sulfonyl)-6,6a,7,8,9,10-hexahydro-5H-pyrido[1,2-a]quinoxalin-8-ol], on RORγt-LBD, the EC50 came to 98.3 nM and the “TR-FRET Biochemical Amax” value was 1.31. Also, at RORγt, the EC50 turned out to be 643 nM and the “Cellular Reporter Assay Amax” value came out at 3.0.

`O=S(=O)(c1cccc(C(F)(F)F)c1)N1C[C@@H]2CN(C[C@@H](O)CO)CCN2c2ccc(-c3cc(F)cc(OC(F)F)c3)cc21` [Example 39, (R)-3-((S)-8-(3-(difluorome-thoxy)-5-fluorophenyl)-6-((3-(trifluoromethyl)phenyl)sulfonyl)-1,2,4,4a,5,6-hexahydro-3H-pyrazino[1,2-a]quinoxalin-3-yl) propane-1,2-diol]: on RORγt-LBD, the EC50 was found to be 33.6 nM and the “TR-FRET Biochemical Amax” value is reported as 0.58. Further, on RORγt, the EC50 came to 1240 nM and the “Cellular Reporter Assay Amax” value worked out at 2.2.

Turning to `NS(=O)(=O)N1CCN2c3ccc(/C=C/c4c(Cl)cccc4C(F)(F)F)cc3N(S(=O)(=O)c3cccc(C(F)(F)F)c3)C[C@@H]2C1` [Example 68, (R,E)-8-(2-chloro-6-(trifluorometh-yl)styryl)-6-((3-(trifluorometh-yl)phenyl)sulfonyl)-1,2,4,4a,5,6-hexahydro-3H-pyrazino[1,2-a]quinoxaline-3-sulfonamide], on RORγt-LBD, the EC50 amounted to 30.5 nM and the “TR-FRET Biochemical Amax” value was determined as 1.03. On RORγt, the EC50 came to 151 nM and the “Cellular Reporter Assay Amax” value turned out to be 2.5.

Regarding `O=S(=O)(c1cccc(C(F)(F)F)c1)N1CC2CSCCN2c2ccc(-c3cc(F)cc(OC(F)F)c3)cc21` (stereo not drawn) [Example 100, 8-(3-(difluoromethoxy)-5-fluorophenyl)-6-((3-(trifluoromethyl)phenyl)sulfonyl)-1,2,4,4a,5,6-hexahydro-[1,4]thiazino[4,3-a]quinoxaline], at RORγt-LBD, the EC50 is 91.7 nM and the “TR-FRET Biochemical Amax” value stood at 0.84. In addition, at RORγt, the EC50 is 3450 nM and the “Cellular Reporter Assay Amax” value is listed as 4.3.

Take `O=S(=O)(c1cccc(C(F)(F)F)c1)N1C[C@@H]2CC(F)CCN2c2ccc(-c3cc(F)cc(OC(F)F)c3)cc21` (stereo partly drawn) [Example 103, (6aS)-3-(3-(difluoromethoxy)-5-fluorophenyl)-8-fluoro-5-((3-(trifluoromethyl)phenyl)sulfonyl)-6,6a,7,8,9,10-hexahydro-5H-pyrido[1,2-a]quinoxaline]: at RORγt-LBD, the EC50 came to 41.1 nM and the “TR-FRET Biochemical Amax” value is recorded as 0.49. For the same compound, on RORγt, the EC50 was 1300 nM and the “Cellular Reporter Assay Amax” value was 2.7.

Regarding `CN1c2ccc(-c3cc(F)cc(OC(F)F)c3)cc2N(S(=O)(=O)c2cccc(C(F)(F)F)c2)C[C@@H]1CCC(=O)O` [Example 5, (S)-3-(6-(3-(difluorome-thoxy)-5-fluorophenyl)-1-methyl-4-((3-(trifluorometh-yl)phenyl)sulfonyl)-1,2,3,4-tetrahydroquinoxalin-2-yl)propanoic acid], at RORγt-LBD, the EC50 was found to be 9.68 nM and the “TR-FRET Biochemical Amax” value is reported as 1.39. Besides, on RORγt, the EC50 worked out at 1030 nM and the “Cellular Reporter Assay Amax” value was 5.0.

As to `C/C(=C\c1ccc2c(c1)N(S(=O)(=O)c1cccc(C(F)(F)F)c1)C[C@@H]1CN(CC(C)(C)O)CCN21)c1c(F)cccc1Cl` [Example 82, (S,E)-1-(8-(2-(2-chloro-6-fluorophenyl)prop-1-en-1-yl)-6-((3-(trifluoromethyl)phenyl)sulfonyl)-1,2,4,4a,5,6-hexahydro-3H-pyrazino[1,2-a]quinoxalin-3-yl)-2-methylpropan-2-ol], at RORγt-LBD, the EC50 was 28.1 nM and the “TR-FRET Biochemical Amax” value amounted to 1.09. In addition, on RORγt, the EC50 was 394 nM and the “Cellular Reporter Assay Amax” value came out at 4.5.

Consider `NC(=O)OC1CCN2c3ccc(-c4cc(F)cc(OC(F)F)c4)cc3N(S(=O)(=O)c3cccc(C(F)(F)F)c3)C[C@@H]2C1` (stereo partly drawn) [Example 104, (6aS)-3-(3-(difluoromethoxy)-5-fluorophenyl)-5-((3-(trifluoromethyl)phenyl)sulfonyl)-6,6a,7,8,9,10-hexahydro-5H-pyrido[1,2-a]quinoxalin-8-yl carbamate], for which, at RORγt-LBD, the EC50 was 46.3 nM and the “TR-FRET Biochemical Amax” value is recorded as 0.81. Further, on RORγt, the EC50 was 344 nM and the “Cellular Reporter Assay Amax” value is 2.3.

On to `CS(=O)(=O)COC1CCN2c3ccc(-c4cc(F)cc(OC(F)F)c4)cc3N(S(=O)(=O)c3cccc(C(F)(F)F)c3)C[C@@H]2C1` (stereo partly drawn) [Example 110, (6aS)-3-(3-(difluoromethoxy)-5-fluorophenyl)-8-((methylsulfonyl)methoxy)-5-((3-(trifluoromethyl)phenyl)sulfonyl)-6,6a,7,8,9,10-hexahydro-5H-pyrido[1,2-a]quinoxaline], for which, at RORγt-LBD, the EC50 came to 12.1 nM and the “TR-FRET Biochemical Amax” value turned out to be 0.76. Further, on RORγt, the EC50 came out at 214 nM and the “Cellular Reporter Assay Amax” value came out at 2.8.

For the compound `C/C(=C\c1ccc2c(c1)N(S(=O)(=O)c1cccc(C(F)(F)F)c1)C[C@@H]1CN(C[C@@H](O)CO)CCN21)c1c(F)cccc1Cl` [Example 37, (R)-3-((S)-8-((E)-2-(2-chloro-6-fluorophenyl)prop-1-en-1-yl)-6-((3-(trifluoromethyl)phe-nyl)sulfonyl)-1,2,4,4a,5,6-hexa-hydro-3H-pyrazino[1,2-a]qui-noxalin-3-yl)propane-1,2-diol], at RORγt-LBD, the EC50 was determined as 37.5 nM and the “TR-FRET Biochemical Amax” value amounted to 1.21. Also, at RORγt, the EC50 stood at 366 nM and the “Cellular Reporter Assay Amax” value was determined as 3.7.

`CN1c2ccc(C3CC(C)(C)OC(C)(C)C3)cc2N(S(=O)(=O)c2cccc(C(F)(F)F)c2)C[C@@H]1CCC(=O)O` [Example 119, (S)-3-(1-methyl-6-(2,2,6,6-tetramethyltetrahydro-2H-pyran-4-yl)-4-((3-(trifluoromethyl)phenyl)sulfonyl)-1,2,3,4-tetrahydroquinoxalin-2-yl)propanoic acid]: on RORγt-LBD, the EC50 was found to be 31.5 nM and the “TR-FRET Biochemical Amax” value is 0.41. At RORγt, the EC50 worked out at 295 nM and the “Cellular Reporter Assay Amax” value amounted to 1.1.

As to `N#Cc1cc(Cl)cc(-c2ccc3c(c2)N(S(=O)(=O)c2cccc(C(F)(F)F)c2)C[C@@H]2CN(CC(=O)O)CCN32)c1` [Example 97, (S)-2-(8-(3-chloro-5-cyanophe-nyl)-6-((3-(trifluoromethyl)phe-nyl)sulfonyl)-1,2,4,4a,5,6-hexa-hydro-3H-pyrazino[1,2-a]quinox-alin-3-yl)acetic acid], on RORγt-LBD, the EC50 was 37 nM and the “TR-FRET Biochemical Amax” value is 0.61. Also, at RORγt, the EC50 is 605 nM and the “Cellular Reporter Assay Amax” value turned out to be 2.5.

The record behind these values is patent publication US20220009894A1, “1,2,3,4-TETRAHYDROQUINOXALINE DERIVATIVE, PREPARATION METHOD THEREFOR AND APPLICATION THEREOF” (Abbisko Therapeutics Co., Ltd., priority 2019, published 2022).
